# Assay results: patent US20070134178A1, “Skin lightening complex” (priority 2005, published 2007)
# Columns and labels:
# [1] = about 20% HQ in the complex, solvent mixture of two solvents of different polarity index
# From the text: Although the melanin-inhibiting effectiveness of HQ is desirable, water-based formulations containing high concentration HQ are difficult to prepare due to limitations in its solubility.
# [2] = 25° C; cited from earlier work
compound,measurement,setting,value
"Oc1ccc(O)cc1 [HQ, 1,4-benzenediol]",times more HQ dissolved in the solvent mixture than in aqueous media,[1],about 38.5 times
same,HQ solubility in aqueous media,[2],up to 7.3 g/L
